Laboratory results as given in publication PMC3913857, “Regorafenib in Japanese patients with solid tumors: phase I study of safety, efficacy, and pharmacokinetics” (Investigational New Drugs, 2013).
Marks after values point to notes of the source that are not given here.

Assay: clinical
Set-up: species or system Japanese patients
Conditions: in vivo; for AUC from 0 to 24 h of metabolite as share of regorafenib / t 1/2 (terminal half life) / t max / AUC / AUC0–24 / C max: human
Method: Patients who provided at least one evaluable pharmacokinetic sample were eligible for pharmacokinetic analyses.
Plasma concentrations of regorafenib and its metabolites were determined by fully validated liquid chromatography–tandem mass spectrometry after protein precipitation with acetonitrile/ammonium acetate buffer containing the internal standards [^2H3 ^15N] BAY 73-4506 (for regorafenib), [^2H3 ^15N] […] BAY 81-8752 (for the M5 metabolite).

| AUC from 0 to 24 h of metabolite as share of regorafenib [%] | t 1/2 (terminal half life) | t max | AUC (po, 160 mg) | AUC0–24 (po, 160 mg) | C max (po, 160 mg) | t max (po, 160 mg) | Change in t max and t 1/2 between single dosing and 21-day multiple dosing | t 1/2 (terminal half life) (po, 160 mg) | SMILES |
| --- | --- | --- | --- | --- | --- | --- | --- | --- | --- |
| 21.5 | 57.5 (33.7) h | 35.6 (0.6–73.2) h | 3,441.8 (112.0)^a μg.h/L | 380.5/164.2 (112.0)^a μg.h/L | 31.1 (167.3)^a μg/L | 24.0 (2.8–71.3)^a h | no significant change |  | NC(=O)c1cc(Oc2ccc(NC(=O)Nc3ccc(Cl)c(C(F)(F)F)c3)c(F)c2)cc[n+]1[O-] [M5] |
| 47.3 | 29.5 (24.1) h | 4.3 (0.6–47.9) h | 7,820.6 (301.2) μg.h/L | 3,697.2 (340.5) μg.h/L | 273.3 (388.9) μg/L |  | no significant change | 24.8 (27.7) h | CNC(=O)c1cc(Oc2ccc(NC(=O)Nc3ccc(Cl)c(C(F)(F)F)c3)c(F)c2)cc[n+]1[O-] [M2] |
